Bounds are passed on as bounds.

By melting point is commonly meant the temperature, or range, at which the solid turns liquid.

System in one data set: not given
Experiment: not given
Conditions: not given
As to `CC(C)CC(C)(Cc1ccccc1)C(=O)Nc1cnc2c(Cl)cccc2c1` (stereo not shown) [Compound E-9, 2-benzyl-N-(8-chloro-3-quinolyl)-2,4-dimethyl-pentanamide], the melting point was in the range of 163 to 165 °C.

The compound `C=C(C)CC(C)(Cc1cccc(F)c1)C(=O)Nc1cnc2c(F)cccc2c1` (stereo not shown) [Compound E-11, 2-[(3-fluorophenyl)-methyl]-N-(8-fluoro-3-quinolyl)-2,4-dimethyl-pent-4-enamide] returned a melting point of 125 to 127 °C.

`C=C(C)CC(C)(Cc1cccc(F)c1)C(=O)Nc1cc2cccc(F)c2nc1C` (stereo not shown) [Compound E-12, N-(8-fluoro-2-methyl-3-quinolyl)-2-[(3-fluorophenyl)methyl]-2,4-dimethyl-pent-4-enamide] yielded a melting point of 124 to 126 °C.

`Cc1c(NC(=O)C(C)(Cc2ccccc2)CC(C)C)cnc2c(Cl)cccc12` (stereo not shown) [Compound E-14, 2-benzyl-N-(8-chloro-4-methyl-3-quinolyl)-2,4-dimethyl-pentanamide] registered a melting point of 124 to 126 °C.

`Cc1c(NC(=O)C(C)(Cc2ccccc2)CC(F)(F)F)cnc2c(Cl)cccc12` (stereo not shown) [Compound E-15, 2-benzyl-N-(8-chloro-4-methyl-3-quinolyl)-4,4,4-trifluoro-2-methyl-butanamide] showed a melting point of 73 to 75 °C.

`CC(Cc1ccccc1)(CC1(F)CC1)C(=O)Nc1cnc2c(F)cccc2c1` (stereo not shown) [Compound E-25, 2-benzyl-3-(1-fluorocyclopropyl)-N-(8-fluoro-3-quinolyl)-2-methyl-propanamide] registered a melting point of 162 to 164 °C.

`C/C=C\CC(C)(Cc1ccccc1)C(=O)Nc1cnc2c(F)cccc2c1` (stereo not shown) [Compound E-28, (Z)-2-benzyl-N-(8-fluoro-3-quinolyl)-2-methyl-hex-4-enamide] gave a melting point of 128 to 130 °C.

Take `CC(Cc1ccccc1)C(=O)Nc1cnc2c(F)cccc2c1` (stereo not shown) [Compound E-31, N-(8-fluoro-3-quinolyl)-2-methyl-3-phenyl-propanamide]: the melting point lay within 188 to 190 °C.

`COCN(C(=O)C(C)(Cc1ccccc1)CC(F)(F)F)c1cnc2c(F)cccc2c1` (stereo not shown) [Compound E-33, 2-benzyl-4,4,4-trifluoro-N-(8-fluoro-3-quinolyl)-N-(methoxymethyl)-2-methyl-butanamide]: the melting point is 108 to 110 °C.

Regarding `COC(Cc1ccccc1)(CC(C)C)C(=O)Nc1cc2cccc(F)c2nc1C` (stereo not shown) [Compound E-37, 2-benzyl-N-(8-fluoro-2-methyl-3-quinolyl)-2-methoxy-4-methyl-pentanamide], the melting point is 92 to 94 °C.

Compound `COC(Cc1ccccc1)(CC(C)C)C(=O)Nc1cnc2c(F)cccc2c1` (stereo not shown) [Compound E-38, 2-benzyl-N-(8-fluoro-3-quinolyl)-2-methoxy-4-methyl-pentanamide] displayed a melting point of 133 to 135 °C.

`CN(C(=O)C(C)(Cc1ccccc1)CC(F)(F)F)c1cnc2c(F)cccc2c1` (stereo not shown) [Compound E-42, 2-benzyl-4,4,4-trifluoro-N-(8-fluoro-3-quinolyl)-N,2-dimethyl-butanamide] displayed a melting point of 137 to 139 °C.

`COC(C)(Cc1ccccc1)C(=O)Nc1cnc2c(F)cccc2c1` (stereo not shown) [Compound E-43, N-(8-fluoro-3-quinolyl)-2-methoxy-2-methyl-3-phenyl-propanamide]: the melting point fell in the range of 107 to 109 °C.

The compound `CC(C)=CC(C)(Cc1ccccc1)C(=O)Nc1cnc2c(F)cccc2c1` (stereo not shown) [Compound E-48, 2-benzyl-N-(8-fluoro-3-quinolyl)-2,4-dimethyl-pent-3-enamide] returned a melting point of 167 to 169 °C.

As to `CC(Cc1ccccc1)(CC(F)(F)F)C(=O)Nc1cnc2cccc(F)c2c1` (stereo not shown) [Compound E-49, 2-benzyl-4,4,4-trifluoro-N-(5-fluoro-3-quinolyl)-2-methyl-butanamide], the melting point lay within 140 to 142 °C.

`CC(Cc1ccccc1)(CC(F)(F)F)C(=O)Nc1cnc2c(Cl)cccc2c1` (stereo not shown) [Compound E-51, 2-benzyl-N-(8-chloro-3-quinolyl)-4,4,4-trifluoro-2-methyl-butanamide]: the melting point was in the range of 104 to 106 °C.

The compound `CC(Cc1ccccc1)(CC(F)(F)F)C(=O)Nc1cnc2cc(F)ccc2c1` (stereo not shown) [Compound E-52, 2-benzyl-4,4,4-trifluoro-N-(7-fluoro-3-quinolyl)-2-methyl-butanamide] returned a melting point of 180 to 182 °C.

Turning to `C=C(CC)CC(C)(Cc1ccccc1)C(=O)Nc1cnc2c(F)cccc2c1` (stereo not shown) [Compound E-54, 2-benzyl-N-(8-fluoro-3-quinolyl)-2-methyl-4-methylene-hexanamide], the melting point is 118 to 120 °C.

`C=C(C)CC(C)(Cc1ccccc1)C(=O)Nc1cnc2c(F)cccc2c1C` (stereo not shown) [Compound E-65, 2-benzyl-N-(8-fluoro-4-methyl-3-quinolyl)-2,4-dimethyl-pent-4-enamide] came in with a melting point of 105 to 109 °C.

As to `CC1(CC(C)(Cc2ccccc2)C(=O)Nc2cnc3c(F)cccc3c2)CC1` (stereo not shown) [Compound E-70, 2-benzyl-N-(8-fluoro-3-quinolyl)-2-methyl-3-(1-methylcyclopropyl)propanamide], the melting point lay in the range of 149 to 151 °C.

A further data set deals with Fusarium culmorum. The experiment in a line: whole plant or invertebrate. It counts as in vivo, Fusarium culmorum on wheat spikelets cv. Monsun. To be noted: in Triticum aestivum, read-out: control of Fusarium culmorum.
With `CC(Cc1ccccc1)(CC1(F)CC1)C(=O)Nc1cnc2c(F)cccc2c1` (stereo not shown) [Compound E-25, 2-benzyl-3-(1-fluorocyclopropyl)-N-(8-fluoro-3-quinolyl)-2-methyl-propanamide], the pest or weed control at 200 ppm was not below 80%.

With `C/C=C\CC(C)(Cc1ccccc1)C(=O)Nc1cnc2c(F)cccc2c1` (stereo not shown) [Compound E-28, (Z)-2-benzyl-N-(8-fluoro-3-quinolyl)-2-methyl-hex-4-enamide], the pest or weed control at 200 ppm was not below 80%.

Turning to `C/C=C(\C)CC(C)(Cc1ccccc1)C(=O)Nc1cnc2c(F)cccc2c1` (stereo not shown) [Compound E-32, (E)-2-benzyl-N-(8-fluoro-3-quinolyl)-2,4-dimethyl-hex-4-enamide], the pest or weed control at 200 ppm was not below 80%.

With `CC(C)CC(Cc1ccccc1)C(=O)Nc1cnc2c(F)cccc2c1` (stereo not shown) [Compound E-35, 2-benzyl-N-(8-fluoro-3-quinolyl)-4-methyl-pentanamide], the pest or weed control at 200 ppm was not below 80%.

As to `COC(Cc1ccccc1)(CC(C)C)C(=O)Nc1cc2cccc(F)c2nc1C` (stereo not shown) [Compound E-37, 2-benzyl-N-(8-fluoro-2-methyl-3-quinolyl)-2-methoxy-4-methyl-pentanamide], the pest or weed control at 200 ppm is not below 80%.

As to `COC(Cc1ccccc1)(CC(C)C)C(=O)Nc1cnc2c(F)cccc2c1` (stereo not shown) [Compound E-38, 2-benzyl-N-(8-fluoro-3-quinolyl)-2-methoxy-4-methyl-pentanamide], the pest or weed control at 200 ppm is not below 80%.

On to `Cc1nc2c(F)cccc2cc1NC(=O)C(C)(Cc1ccccc1)OC(C)C` (stereo not shown) [Compound E-39, N-(8-fluoro-2-methyl-3-quinolyl)-2-isopropoxy-2-methyl-3-phenyl-propanamide], for which the pest or weed control at 200 ppm is not below 80%.

With `CC(C)OC(C)(Cc1ccccc1)C(=O)Nc1cnc2c(F)cccc2c1` (stereo not shown) [Compound E-40, N-(8-fluoro-3-quinolyl)-2-isopropoxy-2-methyl-3-phenyl-propanamide], the pest or weed control at 200 ppm is not below 80%.

As to `COC(C)(Cc1ccccc1)C(=O)Nc1cc2cccc(F)c2nc1C` (stereo not shown) [Compound E-41, N-(8-fluoro-2-methyl-3-quinolyl)-2-methoxy-2-methyl-3-phenyl-propanamide], the pest or weed control at 200 ppm is not below 80%.

For the compound `COC(C)(Cc1ccccc1)C(=O)Nc1cnc2c(F)cccc2c1` (stereo not shown) [Compound E-43, N-(8-fluoro-3-quinolyl)-2-methoxy-2-methyl-3-phenyl-propanamide], the pest or weed control at 200 ppm is not below 80%.

As for `Cc1nc2c(F)cccc2cc1NC(=O)C(C)(Cc1ccccc1)CC(F)(F)F` (stereo not shown) [Compound E-47, 2-benzyl-4,4,4-trifluoro-N-(8-fluoro-2-methyl-3-quinolyl)-2-methyl-butanamide], the pest or weed control at 200 ppm was not below 80%.

On to `CC(C)=CC(C)(Cc1ccccc1)C(=O)Nc1cnc2c(F)cccc2c1` (stereo not shown) [Compound E-48, 2-benzyl-N-(8-fluoro-3-quinolyl)-2,4-dimethyl-pent-3-enamide], for which the pest or weed control at 200 ppm is not below 80%.

For `CC(Cc1ccccc1)(CC(F)(F)F)C(=O)Nc1cnc2c(Cl)cccc2c1` (stereo not shown) [Compound E-51, 2-benzyl-N-(8-chloro-3-quinolyl)-4,4,4-trifluoro-2-methyl-butanamide], the pest or weed control at 200 ppm was not below 80%.

Turning to `CC(Cc1ccccc1)(CC(F)F)C(=O)Nc1cnc2c(F)cccc2c1` (stereo not shown) [Compound E-55, 2-benzyl-4,4-difluoro-N-(8-fluoro-3-quinolyl)-2-methyl-butanamide], the pest or weed control at 200 ppm is not below 80%.

Regarding `CC(Cc1ccccc1)(CC(F)(F)Cl)C(=O)Nc1cnc2c(F)cccc2c1` (stereo not shown) [Compound E-56, 2-benzyl-4-chloro-4,4-difluoro-N-(8-fluoro-3-quinolyl)-2-methyl-butanamide], the pest or weed control at 200 ppm is not below 80%.

Consider `CC(C=C(F)F)(Cc1ccccc1)C(=O)Nc1cnc2c(F)cccc2c1` (stereo not shown) [Compound E-57, 2-benzyl-4,4-difluoro-N-(8-fluoro-3-quinolyl)-2-methyl-but-3-enamide], for which the pest or weed control at 200 ppm was not below 80%.

Regarding `C=C(C)CC(C)(Cc1ccccc1)C(=O)Nc1cnc2ccccc2c1` (stereo not shown) [Compound E-64, 2-benzyl-2,4-dimethyl-N-(3-quinolyl)pent-4-enamide], the pest or weed control at 200 ppm was not below 80%.

Turning to `C=C(C)CC(C)(Cc1ccccc1)C(=O)Nc1cc2cccc(F)c2nc1C` (stereo not shown) [Compound E-66, 2-benzyl-N-(8-fluoro-2-methyl-3-quinolyl)-2,4-dimethyl-pent-4-enamide], the pest or weed control at 200 ppm is not below 80%.

On to `CC(C)(Cc1ccccc1)C(=O)Nc1cnc2c(F)cccc2c1` [Compound E-69, N-(8-fluoro-3-quinolyl)-2,2-dimethyl-3-phenyl-propanamide], for which the pest or weed control at 200 ppm was not below 80%.

In the case of `CCCC(C)(Cc1ccccc1)C(=O)Nc1cnc2c(F)cccc2c1` (stereo not shown) [Compound E-77, 2-benzyl-N-(8-fluoro-3-quinolyl)-2-methyl-pentanamide], the pest or weed control at 200 ppm is not below 80%.

For the compound `CC(Cc1ccccc1)(CC(F)(F)F)C(=O)Nc1cnc2ccccc2c1` (stereo not shown) [Compound E-81, 2-benzyl-4,4,4-trifluoro-2-methyl-N-(3-quinolyl)butanamide], the pest or weed control at 200 ppm is not below 80%.

With `CC(C)CC(C#N)(Cc1ccccc1)C(=O)Nc1cnc2c(F)cccc2c1` (stereo not shown) [Compound E-83, 2-benzyl-2-cyano-N-(8-fluoro-3-quinolyl)-4-methyl-pentanamide], the pest or weed control at 200 ppm was not below 80%.

Turning to `Cc1nc2c(F)cccc2cc1NC(=O)[C@](C)(Cc1ccccc1)CC(C)C` [Compound F-7, (2S)-2-benzyl-N-(8-fluoro-2-methyl-3-quinolyl)-2,4-dimethyl-pentanamide], the pest or weed control at 200 ppm is not below 80%.

Regarding `Cc1nc2c(F)cccc2cc1NC(=O)[C@@](C)(Cc1ccccc1)CC(C)C` [Compound F-8, (2R)-2-benzyl-N-(8-fluoro-2-methyl-3-quinolyl)-2,4-dimethyl-pentanamide], the pest or weed control at 200 ppm is not below 80%.

As for `Cc1c(NC(=O)[C@](C)(Cc2ccccc2)CC(F)(F)F)cnc2c(F)cccc12` [Compound F-13, (2R)-2-benzyl-4,4,4-trifluoro-N-(8-fluoro-4-methyl-3-quinolyl)-2-methyl-butanamide], the pest or weed control at 200 ppm was not below 80%.

For the compound `Cc1c(NC(=O)[C@@](C)(Cc2ccccc2)CC(F)(F)F)cnc2c(F)cccc12` [Compound F-14, (2S)-2-benzyl-4,4,4-trifluoro-N-(8-fluoro-4-methyl-3-quinolyl)-2-methyl-butanamide], the pest or weed control at 200 ppm was not below 80%.

For the origin of these results see US20220030867A1 (priority 2018, published 2022).
